Test results: patent US20250107543A1, “TREATMENT OF AGRICULTURAL, FOOD AND RELATED PRODUCTS FOR ELIMINATING CONTAMINANTS AND ENCHANCING SHELF-LIFE” (priority 2022, published 2025)

What was measured:
yeast, mould = test: Yeast & Mould Count of treated whole red chilli; details: whole red chilli 12 kg's
Method: (§1) This experiment illustrates the treatment of aerobic micro-organisms, yeast, mould, coliform, E. coli, Salmonella and fat soluble metabolites contaminated whole red chilli.
(§2) The data presented in Table-2 illustrate the efficacy of the present disclosure in detoxifying contaminated whole red chillies. […].
(§3) The red chillies were exposed with Trioxygen for 2 minutes. The products were put under pressure of trioxygen gas for a span of 9 minutes to 26 minutes. Based on the commodity characteristics, the exposure of trioxygen gas was repeated 10 times. Trioxygen gas having a capacity 500 g/h was generated by the trioxygen generator (on site) of the system with a constant oxygen flow rate and delivered to the decontamination chamber through silicon tube. The whole red chillies were then treated to heated air.

[1] = Pesticide residue in treated whole red chilli: Myclobutanil; details: whole red chilli 12 kg's, Trial 1; HOCL and Trioxygen simultaneously
Excerpt: (§4) This experiment illustrates the treatment of whole red chilli contaminated with pesticide residues.
(§5) The data presented in Table-6 illustrates the efficacy of the present disclosure in detoxifying contaminated whole red chillies. Sets of whole red chillies of 12 kg's contaminated with pesticides like Azoxystrobin, Imidacloprid Novaluron and Myclobutanil were used for the experiment. An inert gas (Nitrogen & Carbon-di-oxide) were introduced into the chamber filled with the material to drive out existing air and oxygen in the chamber. Pre-conditioning was carried out with HOCL and trioxygen being introduced simultaneously in decontamination chamber with faster decontamination process in the system with a shorter timeline protocol.
(§6) The red chillies were exposed with HOCL and Trioxygen simultaneously for 2 minutes. The products were put under pressure of 2 bar of trioxygen gas for a span of 9 minutes to 26 minutes. Based on the commodity characteristics, the exposure of trioxygen gas was repeated 10 times. Trioxygen gas having a capacity 500 g/h was generated by the trioxygen generator (on site) of the system with a constant oxygen flow rate and delivered to the decontamination chamber through silicon tube. The whole red chillies were then treated to heated air.

coliform = test: Coliform Count of treated whole red chilli; details: whole red chilli 12 kg's
Method: as §1, §2, §3

Salmonella = Salmonella presence in treated whole red chilli; details: whole red chilli 12 kg's, Trial 1
Method: as §1, §2, §3

weevils and weevil eggs [2] = test: Shelf-Life Assessment of Rice; set-up: key to Visual observation: Pin holes on grain / Visual observation: Powder at the bottom of bag / Weevils/Insects: ✓ Not observed; x Observed; details: for Visual observation: Pin holes on grain / Visual observation: Powder at the bottom of bag / Weevils/Insects: Treated sample
Method: (§7) The data presented in Table-5 illustrates the efficiency of the system of the present disclosure in pre-conditioning and deactivation of weevils and weevil eggs results in delayed occurrence of insect infestation in grains.
(§8) Grains such as Dry corn, Groundnut, Rice & Wheat were separately pre-conditioned and decontaminated in the system of the present disclosure. Grains were exposed to trioxygen gas for up to 5 minutes. The products were put under pressure of trioxygen gas for a span of 9 minutes to 26 minutes. Trioxygen gas having capacity 500 g/h was generated by the trioxygen generator of the system (on site) with a constant oxygen flow rate and delivered to the decontamination chamber through silicon tube. All products were treated with hot air and then analyzed for the presence of the weevils and weevil eggs the results obtained are summarized in Table-5.

weevils and weevil eggs [3] = test: Shelf-Life Assessment of Corn; set-up: key to Visual observation: Powder at the bottom of bag / Weevils/Insects / Visual observation: Pin holes on grain: ✓ Not observed; x Observed; details: for Visual observation: Pin holes on grain / Visual observation: Powder at the bottom of bag / Weevils/Insects: Treated sample
Method: as §7, §8

[4] = Pesticide residue in treated whole red chilli: Novaluron; details: whole red chilli 12 kg's, Trial 1; HOCL and Trioxygen simultaneously
Excerpt: as §4, §5, §6

weevils and weevil eggs [5] = test: Shelf-Life Assessment of Wheat; set-up: key to Visual observation: Pin holes on grain / Visual observation: Powder at the bottom of bag / Weevils/Insects: ✓ Not observed; x Observed; details: for Visual observation: Pin holes on grain / Visual observation: Powder at the bottom of bag / Weevils/Insects: Treated sample
Method: as §7, §8

[6] = Pesticide residue in treated whole red chilli: Azoxystrobin; details: whole red chilli 12 kg's, Trial 1; HOCL and Trioxygen simultaneously
Excerpt: as §4, §5, §6

Compound: O=[O+][O-] [Trioxygen]
- Yeast & Mould Count, % Reduction (yeast, mould; Trial 1): 73%
- Yeast & Mould Count, Results After Treatment (yeast, mould; Trial 1, before treatment 1.57 × 10^7 cfu/g): 4.18 × 10^6 cfu/g
- Yeast & Mold Count, % Reduction (yeast, mould; Trial 2): 83%
- Yeast & Mold Count, Results After Treatment (yeast, mould; Trial 2, before treatment 1.7 × 10^7 cfu/g): 2.9 × 10^6 cfu/g
- Yeast & Mold Count, % Reduction (yeast, mould; Trial 3): 99%
- Yeast & Mold Count, Results After Treatment (yeast, mould; Trial 3, before treatment 3.36 × 10^7 cfu/g): 1.87 × 10^5 cfu/g
- Myclobutanil, % Reduction [1]: 100%
- Coliform Count, % Reduction (coliform; Trial 1): 93%
- Coliform Count, Results After Treatment (coliform; Trial 1, before treatment 2.7 × 10^4 cfu/g): 1.82 × 10^3 cfu/g
- Coliform Count, % Reduction (coliform; Trial 3): 100%
- Coliform Count, Results After Treatment (coliform; Trial 3, before treatment 5.45 × 10^3 cfu/g): <10 cfu/g
- Salmonella, % Reduction (Salmonella): 100%
- Salmonella, Results After Treatment (Salmonella; before treatment Present/25 g): Absent/25 g
- No weevil infestation in system treated samples up to (weevils and weevil eggs [2]): up to 6 months
- Treatment effective in delaying infestation up to (weevils and weevil eggs [2]): up to 6 months
- Remarks on Weevils/Insects, Treated (weevils and weevil eggs [2]; Post 1.5 Months): No weevils/insects seen
- Remarks on Weevils/Insects, Treated (weevils and weevil eggs [2]; Post 2 Months): No weevils/insects seen
- Remarks on Weevils/Insects, Treated (weevils and weevil eggs [2]; Post 3 Months): No weevils/insects seen
- Remarks on Weevils/Insects, Treated (weevils and weevil eggs [2]; Post 5 Months): No weevils/insects seen
- Remarks on Weevils/Insects, Treated (weevils and weevil eggs [2]; Post 6 Months): No weevils/insects seen
- Remarks on Weevils/Insects, Treated: black insect alive (weevils and weevil eggs [2]; Post 7 Months): insects and 1 black insect
- Remarks on Weevils/Insects, Treated: small cream coloured insects alive (weevils and weevil eggs [2]; Post 7 Months): 1 small cream coloured
- Visual observation: Pin holes on grain (weevils and weevil eggs [2]; 1.5 Months): ✓
- Visual observation: Powder at the bottom of bag (weevils and weevil eggs [2]; 1.5 Months): ✓
- Weevils/Insects (weevils and weevil eggs [2]; 1.5 Months): ✓
- Visual observation: Pin holes on grain (weevils and weevil eggs [2]; 2 Months): ✓
- Visual observation: Powder at the bottom of bag (weevils and weevil eggs [2]; 2 Months): ✓
- Weevils/Insects (weevils and weevil eggs [2]; 2 Months): ✓
- Visual observation: Pin holes on grain (weevils and weevil eggs [2]; 3 Months): ✓
- Visual observation: Powder at the bottom of bag (weevils and weevil eggs [2]; 3 Months): ✓
- Weevils/Insects (weevils and weevil eggs [2]; 3 Months): ✓
- Visual observation: Pin holes on grain (weevils and weevil eggs [2]; 5 Months): ✓
- Visual observation: Powder at the bottom of bag (weevils and weevil eggs [2]; 5 Months): ✓
- Weevils/Insects (weevils and weevil eggs [2]; 5 Months): ✓
- Visual observation: Pin holes on grain (weevils and weevil eggs [2]; 6 Months): ✓
- Visual observation: Powder at the bottom of bag (weevils and weevil eggs [2]; 6 Months): ✓
- Weevils/Insects (weevils and weevil eggs [2]; 6 Months): ✓
- Visual observation: Pin holes on grain (weevils and weevil eggs [2]; 7 Months): ✓
- Visual observation: Powder at the bottom of bag (weevils and weevil eggs [2]; 7 Months): ✓
- Weevils/Insects (weevils and weevil eggs [2]; 7 Months): x
- No weevil infestation in system treated samples up to (weevils and weevil eggs [3]): up to 6 months
- Treatment effective in delaying infestation up to (weevils and weevil eggs [3]): up to 6 months
- Remarks on Weevils/Insects, Treated (weevils and weevil eggs [3]; Post 1.5 Months): No weevils/insects
- Remarks on Weevils/Insects, Treated (weevils and weevil eggs [3]; Post 2 Months): No weevils/insects
- Remarks on Weevils/Insects, Treated (weevils and weevil eggs [3]; Post 3 Months): No weevils/insects
- Remarks on Weevils/Insects, Treated (weevils and weevil eggs [3]; Post 5 Months): No weevils/insects
- Remarks on Weevils/Insects, Treated: cream coloured insect observed alive (weevils and weevil eggs [3]; Post 6 Months): 1 cream coloured
- Remarks on Weevils/Insects, Treated: cream coloured insect observed alive (weevils and weevil eggs [3]; Post 7 Months): 3 cream coloured
- Visual observation: Pin holes on grain (weevils and weevil eggs [3]; 1.5 Months): ✓
- Visual observation: Powder at the bottom of bag (weevils and weevil eggs [3]; 1.5 Months): ✓
- Weevils/Insects (weevils and weevil eggs [3]; 1.5 Months): ✓
- Visual observation: Pin holes on grain (weevils and weevil eggs [3]; 2 Months): ✓
- Visual observation: Powder at the bottom of bag (weevils and weevil eggs [3]; 2 Months): ✓
- Weevils/Insects (weevils and weevil eggs [3]; 2 Months): ✓
- Visual observation: Pin holes on grain (weevils and weevil eggs [3]; 3 Months): ✓
- Visual observation: Powder at the bottom of bag (weevils and weevil eggs [3]; 3 Months): ✓
- Weevils/Insects (weevils and weevil eggs [3]; 3 Months): ✓
- Visual observation: Pin holes on grain (weevils and weevil eggs [3]; 5 Months): ✓
- Visual observation: Powder at the bottom of bag (weevils and weevil eggs [3]; 5 Months): ✓
- Weevils/Insects (weevils and weevil eggs [3]; 5 Months): ✓
- Visual observation: Pin holes on grain (weevils and weevil eggs [3]; 6 Months): ✓
- Visual observation: Powder at the bottom of bag (weevils and weevil eggs [3]; 6 Months): ✓
- Weevils/Insects (weevils and weevil eggs [3]; 6 Months): x
- Visual observation: Pin holes on grain (weevils and weevil eggs [3]; 7 Months): ✓
- Visual observation: Powder at the bottom of bag (weevils and weevil eggs [3]; 7 Months): ✓
- Weevils/Insects (weevils and weevil eggs [3]; 7 Months): x
- Number of weevils in treated sample compared to those in control, times less (weevils and weevil eggs [3]; at month 7): 5 times
- Number of weevils in treated sample compared to those in control, times less (weevils and weevil eggs [3]; at month 8): 1.5 times
- Number of weevils in treated sample compared to those in control (weevils and weevil eggs [3]; at month 9): No difference
- Novaluron, % Reduction [4]: 100%
- No weevil infestation in system treated samples up to (weevils and weevil eggs [5]): up to 3 months
- Treatment effective in delaying infestation up to (weevils and weevil eggs [5]): up to 6 months
- Remarks on Weevils/Insects, Treated (weevils and weevil eggs [5]; Post 1.5 Months): No weevils/insects
- Remarks on Weevils/Insects, Treated (weevils and weevil eggs [5]; Post 2 Months): No weevils/insects
- Remarks on Weevils/Insects, Treated (weevils and weevil eggs [5]; Post 3 Months): No weevils/insects
- Remarks on Weevils/Insects, Treated: cream/buff colour insect (3 mm) observed alive (weevils and weevil eggs [5]; Post 5 Months): 2 cream/buff colour
- Remarks on Weevils/Insects, Treated: cream/buff colour insect (3 mm) observed alive (weevils and weevil eggs [5]; Post 6 Months): 3 cream/buff colour
- Remarks on Weevils/Insects, Treated: cream/buff colour insect (3 mm) observed alive (weevils and weevil eggs [5]; Post 7 Months): 3 cream/buff colour
- Visual observation: Pin holes on grain (weevils and weevil eggs [5]; 1.5 Months): ✓
- Visual observation: Powder at the bottom of bag (weevils and weevil eggs [5]; 1.5 Months): ✓
- Weevils/Insects (weevils and weevil eggs [5]; 1.5 Months): ✓
- Visual observation: Pin holes on grain (weevils and weevil eggs [5]; 2 Months): ✓
- Visual observation: Powder at the bottom of bag (weevils and weevil eggs [5]; 2 Months): ✓
- Weevils/Insects (weevils and weevil eggs [5]; 2 Months): ✓
- Visual observation: Pin holes on grain (weevils and weevil eggs [5]; 3 Months): ✓
- Visual observation: Powder at the bottom of bag (weevils and weevil eggs [5]; 3 Months): ✓
- Weevils/Insects (weevils and weevil eggs [5]; 3 Months): ✓
- Visual observation: Pin holes on grain (weevils and weevil eggs [5]; 5 Months): ✓
- Visual observation: Powder at the bottom of bag (weevils and weevil eggs [5]; 5 Months): ✓
- Weevils/Insects (weevils and weevil eggs [5]; 5 Months): x
- Visual observation: Pin holes on grain (weevils and weevil eggs [5]; 6 Months): ✓
- Visual observation: Powder at the bottom of bag (weevils and weevil eggs [5]; 6 Months): ✓
- Weevils/Insects (weevils and weevil eggs [5]; 6 Months): x
- Visual observation: Pin holes on grain (weevils and weevil eggs [5]; 7 Months): ✓
- Visual observation: Powder at the bottom of bag (weevils and weevil eggs [5]; 7 Months): ✓
- Weevils/Insects (weevils and weevil eggs [5]; 7 Months): x
- Number of weevils in treated sample compared to those in control, times less (weevils and weevil eggs [5]; at month 5): 4 times
- Azoxystrobin, % Reduction [6]: 62%
